Experimental data reported in US20230365933A1, “COMPOSITIONS AND METHODS FOR INCREASING STEM CELL FUNCTION” (SOCIETE DES PRODUITS NESTLE S.A., priority 2020, published 2023).
“Also recorded” adds a separate entry of the source.

Assays:
[1] = system: murine HSCs (LKS CD150+CD48−); assay: Mitochondrial membrane potential by TMRM staining and flow cytometry in cultured mHSCs; type: cell-based, mouse; conditions: compared to Basal condition; NR 500 uM, Vit B12 (MC) 100 uM; day 3 of culture
Description: Flow cytometry analysis was performed on freshly isolated bone marrow (BM) from C57BI6 mice. BM was extracted from crushed femora and tibia. Cell suspension was filtered through a 70 μm cell strainer and erythroid cells were eliminated by incubation with red blood cell lysis buffer (eBioscences). Isolation and stains were performed in ice-cold PBS 1 mM EDTA. Lineage positive cells were then removed with a magnetic lineage depletion kit (BD biosciences). Cell suspensions were then stained with specific antibodies for the stem cell compartment and sorted by FACS (BD FACS Aria III) into 1.5 ml Eppendorf tubes.
The following antibodies were used in this study: rat mAbs against cKit (2B8), Sca1 (D7), CD150 (TC-15-12F12.2), CD48 (HM48-1). The antibodies were purchased from Biolegend, eBiosciences and BD. A mixture of biotinylated mAbs against CD3, CD11b, CD45R/B220, Ly-6G, Ly-6C and TER-119 was used as lineage marker (“lineage cocktail”) and was purchased from BD. DAPI or propidium iodine (PI) staining was used for live/dead cell discrimination.
Murine HSCs were sorted into 1.5 ml Eppendorf tubes and were cultured in Stemline II (SIGMA) supplemented with 100 ng/ml SCF (R&D) and 2 ng/ml Flt3 (R&D). This was defined as the basal condition. Different concentrations as indicated of NR and Vit B12 (MC) were added in specific wells. NR was supplemented every 24 hours.
Mouse HSCs already in culture were incubated at 37° C. for 1 hour with 200 nM tetramethylrhodamine methyl ester (TMRM; Invitrogen) and 100 nM Mitotracker green. Cells were then washed with FACS buffer and analysed by flow cytometry on a BD LSR II.
Freshly FACS sorted mHSCs (LKS CD150+CD48−) were cultured in basal media (Stemline+SCF+FLT3L) supplemented with UroA, NR and MC in specific wells (as indicated). Cells were harvested at day 3 and stained with tetramethylrhodamine methyl ester (TMRM; to measure mitochondria membrane potential) and Mitotracker (to measure mitochondrial mass), and analysed by flow cytometry.

human HSCs = conditions: culture media supplemented with nicotinamide riboside, primary and secondary recipient humanised mice; cited from earlier work

| Compound | TMRM fluorescent intensity (Mean Fluorescence Intensity, MFI) [1] | proportion of cells in the TMRM low gate [1] | levels of engraftment (human HSCs) | long-term blood production (human HSCs) |
| --- | --- | --- | --- | --- |
| NC(=O)c1ccc[n+]([C@@H]2O[C@H](CO)[C@@H](O)[C@H]2O)c1 [NR, Nicotinamide riboside] | significantly decreased; also recorded: decreases | significantly increased; also recorded: increases | significantly higher levels of engraftment | capable of sustaining long-term blood production |
| C/C1=C2/[N-][C@H]([C@H](CC(N)=O)[C@@]2(C)CCC(=O)NC[C@@H](C)OP(=O)([O-])O[C@H]2[C@@H](O)[C@@H](n3cnc4cc(C)c(C)cc43)O[C@@H]2CO)[C@]2(C)N=C(/C(C)=C3N=C(/C=C4N=C1[C@@H](CCC(N)=O)C\4(C)C)[C@@H](CCC(N)=O)[C@]\3(C)CC(N)=O)[C@@H](CCC(N)=O)[C@]2(C)CC(N)=O.[CH3-].[Co] [MC, methylcobalamine] | significantly decreased; also recorded: decreases | significantly increased; also recorded: increases | – | – |
